Patent publication US20060251651A1, “Antagonist and agonist which bind to a strong binding site of chemokine receptor” (priority 2002, published 2006)
Values joined by “and” are separate entries in the source; they are usually repeats but may differ in a detail not shown here. Equal values may be shown once. “Also recorded” adds a separate entry of the source. Read-outs that look alike come from different tables or passages of the source.

How the values were obtained:
hCCR5 [1] = molecular target: T1, hCCR5 (Homo sapiens, UniProt P51681); experiment: Ligand binding inhibition test for CCR5 under severe washing condition; parameters: expressed in transfected cells; host or cells: CHO-dhfr(-) stably transfected with pEF-BOS-bsr/hCCR5; conditions: for IC50: hCCR5-CHO cells, compound 40 minutes, washed 8 times with PBS, 4 hours at 37° C., then radioisotope-labeled ligand; for inhibitory activity, times higher than that of SCH-351125 / inhibitory activity, times higher than that of TAK-779: ratio of IC50 values under severe washing condition
T1 sequence (P51681 whole entry): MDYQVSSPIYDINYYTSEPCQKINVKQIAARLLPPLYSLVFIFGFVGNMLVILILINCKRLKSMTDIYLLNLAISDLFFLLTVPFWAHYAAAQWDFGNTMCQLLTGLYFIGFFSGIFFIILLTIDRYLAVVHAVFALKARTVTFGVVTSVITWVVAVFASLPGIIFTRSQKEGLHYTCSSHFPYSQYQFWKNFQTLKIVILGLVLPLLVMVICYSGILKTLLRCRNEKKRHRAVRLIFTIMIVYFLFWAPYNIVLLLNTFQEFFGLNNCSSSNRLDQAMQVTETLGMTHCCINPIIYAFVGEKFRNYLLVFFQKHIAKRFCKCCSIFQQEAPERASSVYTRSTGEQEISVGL
Method: Inhibitory effects of CCR5 antagonists (e.g., TAK-779, SCH-351125 and triazaspiro[5.5]undecane derivatives) were examined using a binding test system of CCR5 endogenous ligand to CCR5.
Human CCR5 expressing cells (hCCR5-CHO cells) were inoculated into a culture plate, cultured using a medium (Ham's F-12 medium/10% FBS/Antibiotic-Antimycotic) at 37° C. for 1 day (or 2 days) in a CO2 incubator of 5% CO2 and used in the test. The medium in each well was discarded, the cells were washed with an assay buffer (Ham's F-12 medium/0.5% BSA/20 mmol/l HEPES), and the assay buffer was added to each well. A compound to be tested having respective concentration was added thereto and incubated at room temperature for 40 minutes, and then the cells were washed 8 times with PBS (1 ml/well). The assay buffer was further added and incubated at 37° C. for 4 hours. After 4 hours, the assay buffer was discarded and a radioisotope-labeled ligand was added. The culture mixture containing the cells was incubated at room temperature for 40 minutes and then washed three times with 1 ml/well of ice-cooled PBS. The cells were lysed with 1 mol/I sodium hydroxide aqueous solution, and radioactivity of the cell lysate was measured using a γ counter.

hCCR5 [2] = molecular target: T1, hCCR5; experiment: Inhibitory action upon the hCCR5 binding of tritium-labeled compound 1 (competition test); parameters: expressed in transfected cells; host or cells: Ba/F3 cells electroporated with linearised pEF-BOS-bsr/hCCR5, blasticidin-selected clone; conditions: hCCR5-CHO cells; for inhibition of the hCCR5 binding of tritium-labeled compound 1: when the concentration was increased
Method: Human CCR5 expressing cells (hCCR5-CHO cells) were inoculated into a culture plate, cultured using a medium (Ham's F-12 medium/10% FBS/Antibiotic-Antimycotic) at 37° C. for 1 day in a CO2 incubator of 5% CO2 and used in the test. The medium in each well was discarded, the cells were washed with an assay buffer (Ham's F-12 medium/0.5% BSA/20 mmol/l HEPES), and the assay buffer was added thereto. […] After incubation at room temperature for 2 hours, the cells were washed with 1 ml/well of ice-cooled D-PBS. The cells were lysed with 1 mol/l NaOH and neutralized, and then a scintillator (ACS II, Amersham) was added thereto. Radioactivity of each vial was measured using a liquid scintillation counter (TRI-CARB 2900TR, Perkin Elmer Life Sciences).

hCCR5 [3] = molecular target: T1, hCCR5; experiment: Anti-hCCR5 antibody binding inhibition test (flow cytometry); parameters: expressed in transfected cells; host or cells: Ba/F3 cells electroporated with linearised pEF-BOS-bsr/hCCR5, blasticidin-selected clone; conditions: hCCR5-CHO cells, 10 μmol/l of each compound, FITC-labeled antibody
Method: […] The medium was removed from the flask, and the cells were peeled off and recovered by adding 1 mmol/l EDTA/PBS. The recovered cells were washed once with PBS and again suspended in PBS, and then the number of cells was counted. After centrifugation and subsequent removal of the supernatant by suction, the cells were suspended in an assay buffer (0.5% FBS/Ham's F-12 medium). Each of the compounds to be tested was added to the cell suspension and incubated on ice. An FITC-labeled anti-hCCR5 antibody (45531.111 or 45523.111) or an FITC-labeled isotype control antibody was further added thereto and allowed to undergo the reaction on ice under shading. After the reaction, the cells were washed twice with ice-cooled PBS and again suspended in ice-cooled FACS buffer (2% FBS/PBS), and the amount (fluorescence intensity) of the bound anti-hCCR5 antibody was measured using a flow cytometer (BECTON DICKINSON).

hCCR5 [4] = molecular target: T1, hCCR5; experiment: Migration test induced by MIP-1α using hCCR5-Ba/F3 cells; assay type: cell-based; parameters: expressed in transfected cells; host or cells: Ba/F3 cells electroporated with linearised pEF-BOS-bsr/hCCR5, blasticidin-selected clone; conditions: 24 well transwell, 3 hours; read-out: IC50, inhibition of migration of hCCR5-Ba/F3 cells by MIP-1α
Method: Firstly, 0.5 ml of a medium containing […] was added to the lower chamber (transwell bottom) of a 24 well transwell plate. […] The migration was started by moving the upper chamber wells of the transwell plate to the lower chamber wells containing chemokine. […] Measurement of the number of cells was carried out using a flow cytometer (BECTON DICKINSON), and the number of cells inside the gate (FSC×SSC) was counted. The number of migrated cells was defined as their ratio (%) to the count when the firstly added cells were analyzed by FACS, and the IC50 value was calculated from the inhibitory activity for the DMSO control group.

[5] = Blood plasma levels of compound 1 in mouse after administration into abdominal cavity; assay type: in vivo; conditions: intraperitoneal, Balb/c mouse, read-out: blood plasma level
hCCR5 [6] = molecular target: T1, hCCR5; experiment: Persistency of hCCR5 binding in the living body of mouse after compound administration; assay type: in vivo; parameters: expressed in transfected cells; host or cells: Ba/F3 cells electroporated with linearised pEF-BOS-bsr/hCCR5, blasticidin-selected clone; conditions: Balb/c mouse
Method: The peripheral blood was centrifuged using Lymphocyte-M to prepare PBMC, and the spleen was crushed, subjected to hemolytic treatment and then washed to obtain cells. The thus prepared cells were stained with PE-labeled anti-hCCR5 antibody (45531.111). CFSE-positive hCCR5-Ba/F3 Cells were detected by a flow cytometer, and fluorescence intensity (mean value) of PE-labeled anti-hCCR5 antibodies (2D7 and 45531.111) bound to the cells was measured.
The occupying ratio was calculated by the following formulae.
Correction Value [formula]
Receptor Occupying Ratio (R) [formula]

SMILES	IC50 (hCCR5 [1])	inhibition of the hCCR5 binding of tritium-labeled compound 1 (hCCR5 [2])	inhibition of binding of anti-hCCR5 antibody 45523.111 to hCCR5 expressing cells (hCCR5 [3])	inhibition of binding of anti-hCCR5 antibody 45531.111 to hCCR5 expressing cells (hCCR5 [3])	IC50 (hCCR5 [4])	inhibitory activity, times higher than that of SCH-351125 (hCCR5 [1])	inhibitory activity, times higher than that of TAK-779 (hCCR5 [1])	inhibition of binding of anti-hCCR5 antibody 45531.111 to hCCR5 expressing cells (hCCR5 [3]; hydrochloride)	other results
CCO/N=C(\c1ccc(Br)cc1)C1CCN(C2(C)CCN(C(=O)c3c(C)cc[n+]([O-])c3C)CC2)CC1 [SCH-351125]	16.7 nM	complete inhibition	inhibited binding; also recorded: strongly inhibited	weak	14.4 nM and 21 nM	–	–	–	–
Cc1ccc(-c2ccc3c(c2)C=C(C(=O)Nc2ccc(C[N+](C)(C)C4CCOCC4)cc2)CCC3)cc1.[Cl-] [TAK-779]	10.4 nM	complete inhibition	only weakly; also recorded: weak inhibition	only weakly and weak	55 nM	–	–	–	–
CCCCN1C(=O)[C@@H]([C@H](O)C2CCCCC2)NC(=O)C12CCN(Cc1ccc(Oc3ccc(C(=O)O)cc3)cc1)CC2.Cl [compound 1, (3R)-1-butyl-2,5-dioxo-3-((1R)-1-hydroxy-1-cyclohexylmethyl)-9-(4-(4-carboxyphenyloxy)phenylmethyl)-1,4,9-triazaspiro[5.5]undecane hydrochloride]	–	–	strongly inhibited	–	–	about 4 times	about 2.5 times	strongly inhibited; also recorded: strong	concentration at 0.5 h ([5]; 3 mg/kg into abdominal cavity): 352 nM; concentration at 4 h ([5]; 3 mg/kg into abdominal cavity): 5 nM; concentration at 8 h ([5]; 3 mg/kg into abdominal cavity): 1 nM; concentration at 0.5 h ([5]; 30 mg/kg into abdominal cavity): 1610 nM; concentration at 4 h ([5]; 30 mg/kg into abdominal cavity): 22 nM; concentration at 8 h ([5]; 30 mg/kg into abdominal cavity): 4 nM; competition with TAK-779 and SCH-351125 for CCR5 (hCCR5 [2]; displacement curves shifted in parallel, hydrochloride): competes; also recorded: Competitively antagonizes; hCCR5 occupied in the spleen (hCCR5 [6]; 3 mg/kg into abdominal cavity, 0.5 hours): 92%; hCCR5 occupied in the spleen (hCCR5 [6]; 3 mg/kg into abdominal cavity, 4 hours): 55%; hCCR5 occupied in the spleen (hCCR5 [6]; 3 mg/kg into abdominal cavity, 8 hours): 32%; hCCR5 occupied in the spleen (hCCR5 [6]; 30 mg/kg into abdominal cavity, 0.5 hours): 96%; hCCR5 occupied in the spleen (hCCR5 [6]; 30 mg/kg into abdominal cavity, 4 hours): 69%; hCCR5 occupied in the spleen (hCCR5 [6]; 30 mg/kg into abdominal cavity, 8 hours): 54%
CCCCN1C(=O)[C@@H]([C@H](O)C2CCCCC2)NC(=O)C12CCN(Cc1ccc(Oc3ccc(C(=O)NC)cc3)cc1)CC2.Cl [compound 2, (3R)-1-butyl-2,5-dioxo-3-((1R)-1-hydroxy-1-cyclohexylmethyl)-9-(4-(4-methylaminocarbonylphenyloxy)phenylmethyl)-1,4,9-triazaspiro[5.5]undecane hydrochloride]	1.5 nM	–	strongly inhibited	–	–	about 11 times	about 7 times	strongly inhibited; also recorded: strong	–
